Source: patent publication US8568972B2, “Substances causing differentiation” (Medicyte GmbH, priority 2000, dated 2013)
“Also recorded” adds a separate entry of the source.

Key:
Format in all cases: cell-based, human
U87H-GFP [1] = test: Fluorescence microscopy of H-GFP gene expression; settings: for increase in the green fluorescent signal: 48 h; for upregulation of the CMV promoter, visible due to increased GFP fluorescence: very low concentrations, within two days, after removal of hygromycin
Protocol: U87H-GFP and the parent cells were seeded at 1-2×10^5 cells/well on 6-well plates (Nuclon, NUNC), using D-MEM without hygromycin B, and incubated for adhesion for 24 h. This was followed by adding 5-azacytidine and trichostatin A (Sigma Chemicals, Co.) at different final concentrations (2.5-5-10-20-40 μM for Aza; from 10 nM to 3 μM for TSA) to the culture medium. After two days of treatment, fluorescence microscopy and flow cytometry analyses were carried out. Approximately 10^5 cells of each cell line were seeded on polylysine-coated coverslips, treated with different concentrations of Aza and TSA for 48 h and then fixed in 5% formaldehyde at room temperature for 30 min. This was followed by analyzing all samples under a fluorescence microscope (Axiophot, Zeiss, Germany) and recording various images which correspond to the different final concentrations of each medicament (FIG. 1).

U87H-GFP [2] = test: Flow cytometry (FACS) of H-GFP fusion gene expression under the hCMV promoter in reporter cell line
U87 [3] = test: Flow cytometry (FACS) of background fluorescence in parent cell line (negative control line); settings: 48 h, parent cells
Source text: U87H-GFP is a cell line derived from the human glioblastoma cell line U87 after stable transfection with plasmid pCMV-hygroEGFP. This plasmid which is integrated into the genomic DNA is derived from PCR-Script™ (Stratagene) and carries a fusion gene downstream of the human CMV promoter. This fusion gene contains the gene for resistance to hygromycin, which is linked to the gene coding for the enhanced green fluorescent protein (EGFP). The resulting gene (called H-GFP) codes for a protein which imparts resistance to hygromycin B and which can be readily detected by fluorescence microscopy and flow cytometry analysis. […] U87H-GFP and the parent line U87 were cultured in Dulbecco's Modified Eagle's Medium, (D-MEM, low glucose, Gibco, BRL) supplemented with 10% fetal calf serum (Seromed), 100 units/ml penicillin, 100 μg/ml streptomycin and 1 μg/ml amphotericine B (Gibco, BRL) at 37° C. in a humidified atmosphere containing 5% CO2. For the U87H-GFP cell line, the culture medium was supplemented with 600 units/ml hygromycin B (Calbiochem). U87H-GFP and the parent cells were seeded at 1-2×10^5 cells/well on 6-well plates (Nuclon, NUNC), using D-MEM without hygromycin B, and incubated for adhesion for 24 h. This was followed by adding 5-azacytidine and trichostatin A (Sigma Chemicals, Co.) at different final concentrations (2.5-5-10-20-40 μM for Aza; from 10 nM to 3 μM for TSA) to the culture medium. After two days of treatment, fluorescence microscopy and flow cytometry analyses were carried out. In order to prepare samples for FACS analysis, cells were incubated in the 6-well plates in 0.05% trypsin containing 0.5 mM EDTA (Gibco, BRL) at 37° C. for 5 min, followed by stopping the trypsin action by adding two volumes of culture medium. The cells were harvested, centrifuged at 500×g for 5 min and resuspended in 1 ml complete D-MEM. In order to stain dead cells, propidium iodide (final concentration 10 μg/ml) was added to each sample. The cells were then again centrifuged and resuspended in phosphate-buffered saline (PBS 1×, pH 7.4), before analyzing them by means of FACS. The cells were analyzed using FACScalibur (Becton Dickinson) with the flow rate corresponding to approximately 500 events/s. In order to exactly define a cell population and to exclude cell debris and aggregates, a region of interest was established on the dot plot (FSC compared to SSC). […] The fluorescence intensity of individual cells was measured on a logarithmic scale, each logarithmic histogram representing 2×10^4 counted events. The fluorescence intensity mean value (MFI) was the parameter used for defining the increase in the fluorescence intensity in each cell population.

U87H-GFP [4] = test: Flow cytometry (FACS) of H-GFP fusion gene expression under the hCMV promoter in reporter cell line; settings: 48 h; for increase in the fluorescence intensity mean value: compared to untreated cells
Source text: U87H-GFP is a cell line derived from the human glioblastoma cell line U87 after stable transfection with plasmid pCMV-hygroEGFP. This plasmid which is integrated into the genomic DNA is derived from PCR-Script™ (Stratagene) and carries a fusion gene downstream of the human CMV promoter. This fusion gene contains the gene for resistance to hygromycin, which is linked to the gene coding for the enhanced green fluorescent protein (EGFP). The resulting gene (called H-GFP) codes for a protein which imparts resistance to hygromycin B and which can be readily detected by fluorescence microscopy and flow cytometry analysis. […] U87H-GFP and the parent line U87 were cultured in Dulbecco's Modified Eagle's Medium, (D-MEM, low glucose, Gibco, BRL) supplemented with 10% fetal calf serum (Seromed), 100 units/ml penicillin, 100 μg/ml streptomycin and 1 μg/ml amphotericine B (Gibco, BRL) at 37° C. in a humidified atmosphere containing 5% CO2. For the U87H-GFP cell line, the culture medium was supplemented with 600 units/ml hygromycin B (Calbiochem). U87H-GFP and the parent cells were seeded at 1-2×10^5 cells/well on 6-well plates (Nuclon, NUNC), using D-MEM without hygromycin B, and incubated for adhesion for 24 h. This was followed by adding 5-azacytidine and trichostatin A (Sigma Chemicals, Co.) at different final concentrations (2.5-5-10-20-40 μM for Aza; from 10 nM to 3 μM for TSA) to the culture medium. After two days of treatment, fluorescence microscopy and flow cytometry analyses were carried out. In order to prepare samples for FACS analysis, cells were incubated in the 6-well plates in 0.05% trypsin containing 0.5 mM EDTA (Gibco, BRL) at 37° C. for 5 min, followed by stopping the trypsin action by adding two volumes of culture medium. The cells were harvested, centrifuged at 500×g for 5 min and resuspended in 1 ml complete D-MEM. In order to stain dead cells, propidium iodide (final concentration 10 μg/ml) was added to each sample. The cells were then again centrifuged and resuspended in phosphate-buffered saline (PBS 1×, pH 7.4), before analyzing them by means of FACS. The cells were analyzed using FACScalibur (Becton Dickinson) with the flow rate corresponding to approximately 500 events/s. In order to exactly define a cell population and to exclude cell debris and aggregates, a region of interest was established on the dot plot (FSC compared to SSC). In the two-parameter histogram of propidium iodide, dead cells were distinguished by comparison to forward angle light scatter (FSC). The fluorescence intensity of individual cells was measured on a logarithmic scale, each logarithmic histogram representing 2×10^4 counted events. The fluorescence intensity mean value (MFI) was the parameter used for defining the increase in the fluorescence intensity in each cell population.

U87 [5] = test: Cell cycle analysis (BrdU incorporation / 7-AAD, FACS), parent line; settings: U87, 5 μM Aza, 2 days
Protocol: (§1) U87H-GFP and the parent cells were seeded at 5×10^3/cm^2 in T25 flasks (Nuclon, NUNC), using D-MEM without hygromycin B for both cell lines. Half of the flasks were treated with 5 μM Aza and the other, as a negative control, without any medicaments. After 42 h, BrdU was added to the medium (final concentration of 10 μM), and 6 h later the cells were prepared for cell cycle analysis. The cells were harvested, centrifuged at 500×g for 5 min and fixed in chilled 70% strength ethanol for 20 min. BrdU incorporation into the DNA was detected by using 3×10^5 cells of each Aza-treated or untreated cell line. PBS 1×/0.5% BSA (washing buffer) was added, and the cells were centrifuged at 500×g for 5 min. The pellet was then resuspended in a denaturing solution (HCl 1M, PBS 0.5×BSA 0.5%) and washed again after 20 min. This was followed by re-suspending the pellet in 0.1M sodium borate (Na2B4O7), pH 8.5, for 2 min and then adding the washing buffer. After this passage, the total volume of each sample was divided into two halves (one half being used for the isotype antibody, the other one for the BrdU antibody), centrifuged at 500×g for 5 min, resuspended in the buffer containing the anti-isotype or anti-BrdU monoclonal antibodies (Becton Dickinson) and, after 30 min, washed with PBS 1×/0.5% BSA. The supernatant was discarded and the pellet resuspended in RNAse A (final concentration 100 μg/ml); the DNA was stained by also adding to the solution 7-AAD (Via-PROBE, Becton Dickinson). After 1 h (in the dark), the samples were washed and then resuspended in PBS 1×/0.5% BSA. DNA fluorescence of the nuclei (approximately 10^4 nuclei were analyzed for each cell population) was measured by means of the abovementioned FACScan flow cytometer (Becton Dickinson) and the percentages of cells in the G0 and G1, S, G2 and M phases of the cell cycle were analyzed on the basis of the FACScan software programs.

U87H-GFP [6] = test: Cell cycle analysis (BrdU incorporation / 7-AAD, FACS), reporter line; settings: 5 μM Aza, 2 days
Protocol: as §1

tumor cells U87 = test: Change in cell morphology (differentiation); settings: high concentrations
U87H-GFP [7] = test: Toxicity, number of living cells observed by FACS; settings: final TSA concentrations of more than 3 μM (data not shown)
Protocol: In order to prepare samples for FACS analysis, cells were incubated in the 6-well plates in 0.05% trypsin containing 0.5 mM EDTA (Gibco, BRL) at 37° C. for 5 min, followed by stopping the trypsin action by adding two volumes of culture medium. The cells were harvested, centrifuged at 500×g for 5 min and resuspended in 1 ml complete D-MEM. In order to stain dead cells, propidium iodide (final concentration 10 μg/ml) was added to each sample. The cells were then again centrifuged and resuspended in phosphate-buffered saline (PBS 1×, pH 7.4), before analyzing them by means of FACS.
In order to exactly define a cell population and to exclude cell debris and aggregates, a region of interest was established on the dot plot (FSC compared to SSC). In the two-parameter histogram of propidium iodide, dead cells were distinguished by comparison to forward angle light scatter (FSC). The fluorescence intensity of individual cells was measured on a logarithmic scale, each logarithmic histogram representing 2×10^4 counted events. The fluorescence intensity mean value (MFI) was the parameter used for defining the increase in the fluorescence intensity in each cell population.

[8] = U87H-GFP, listed as Azacytidine

Compound: Nc1ncn([C@@H]2O[C@H](CO)[C@@H](O)[C@H]2O)c(=O)n1 [Aza, 5′-azacytidine]
- increase in the green fluorescent signal (U87H-GFP [1]; 20 μM Aza): clearly defined
- upregulation of the CMV promoter, visible due to increased GFP fluorescence (U87H-GFP [1]): very strong upregulation
- shift of FACS fluorescence profile toward higher fluorescence intensity (U87H-GFP [2]; 0.5 μM Aza, 48 h): completely superpose those of the untreated cells
- increase in the fluorescence intensity mean value (U87H-GFP [2]; 1 μM Aza alone, 48 h, compared to untreated cells): approximately two-fold; also recorded: about a two-fold
- shift in the fluorescence intensity average (U87H-GFP [2]; Aza retained for 144 h, identical final concentrations, versus 48 h experiment (data not shown)): same shift
- shift of FACS fluorescence profile (U87 [3]; 20 μM Aza): small shift
- increase in the fluorescence intensity mean value (U87 [3]; highest concentration used (40 μM Aza)): approximately two-fold; also recorded: less than twice
- shift of FACS fluorescence profile toward higher fluorescence intensity (U87H-GFP [4]; 2.5 μM Aza): already clearly visible
- increase in the fluorescence intensity mean value (U87H-GFP [4]; 2.5 μM Aza): two-fold
- shift of FACS fluorescence profile toward higher fluorescence intensity (U87H-GFP [4]; 20 μM Aza): clearly visible; also recorded: well defined
- increase in the fluorescence intensity mean value (U87H-GFP [4]; 20 μM Aza): three-fold
- Percentages of cells in G1-G0 (U87 [5]): 62.61 ± 0.47%
- Percentages of cells in G2 (U87 [5]): 13.1 ± 2.36%
- Percentages of cells in M (U87 [5]): 10.58 ± 2.85%
- Percentages of cells in S (U87 [5]): 13.54 ± 1.25%
- changes in the cell cycle phases (U87 [5]): significant changes
- Percentages of cells in G1-G0 (U87H-GFP [6]; U87 H-GFP): 61.53 ± 4.06 %
- Percentages of cells in G2 (U87H-GFP [6]; U87 H-GFP): 8.77 ± 1.44%
- Percentages of cells in M (U87H-GFP [6]; U87 H-GFP): 16.26 ± 2.83 %
- Percentages of cells in S (U87H-GFP [6]; U87 H-GFP): 13.3 ± 3.26 %
- change in percentage of cells in G2 versus untreated (U87H-GFP [6]; U87 H-GFP): increased number
- effect on different cell cycle phases (apart from G2) (U87H-GFP [6]; U87 H-GFP): no significant differences
- change in percentage of cells in G2 versus untreated (U87H-GFP [6]; [8]): small increase
- effect on different cell cycle phases (apart from G2) (U87H-GFP [6]; [8]): no significant effect
- change in the morphology of the cells (tumor cells U87): a change in the morphology of the cells was observed

Compound: CC(/C=C/C(=O)NO)=C\[C@@H](C)C(=O)c1ccc(N(C)C)cc1 [TSA, trichostatin A]
- toxicity, number of living cells (U87H-GFP [7]): highly toxic
- increase in the green fluorescent signal (U87H-GFP [1]; 1 μM TSA): clearly defined
- upregulation of the CMV promoter, visible due to increased GFP fluorescence (U87H-GFP [1]): very strong upregulation
- shift of FACS fluorescence profile (U87 [3]; 1 μM TSA): small shift
- increase in fluorescence (U87 [3]; 3 μM TSA): two-fold
- shift of FACS fluorescence profile / increase in H-GFP gene expression (U87H-GFP [4]; 100 nM TSA): completely superpose those of the untreated cells; also recorded: does not induce in any way an increase
- increase in the fluorescence intensity mean value (U87H-GFP [4]; 200 nM TSA alone): approximately two-fold; also recorded: about a two-fold
- increase in the fluorescence intensity (U87H-GFP [4]; 500 nM TSA): slight but significant increase
- shift of FACS fluorescence profile toward higher fluorescence intensity (U87H-GFP [4]; 1 μM TSA): clearly visible; also recorded: attains a saturation threshold
- increase in the fluorescence intensity mean value (U87H-GFP [4]; 1 μM TSA): three-fold
- increase in the fluorescence intensity mean value (U87H-GFP [4]; 3 μM TSA): four-fold
- increase in the fluorescence intensity (U87H-GFP [4]; TSA concentrations lower than 500 nM): not at the lower concentrations used
- change in the morphology of the cells (tumor cells U87): a change in the morphology of the cells was observed
